These results are taken from US4205163A, “Tylosin derivatives” (Sanraku-Ocean Co., Ltd., priority 1977, dated 1980).

Common to all, as to assay: antimicrobial activity, broth dilution method
Holding throughout (assay type): cell-based

Test [1] deals with Sarcina lutea ATCC 9341. Particulars: for MIC: Micrococcus luteus, ATCC9341, Sarcina lutea ATCC 9341, read-out: minimum inhibitory concentration (MIC). How it is done: (§1) Antimicrobial activity of the new antibiotics according to the present invention was measured on various pathogenic microorganisms by the broth dilution mehtod. Tab. […] The new antibiotics show a similar antimicrobial spectrum to that of tylosin as shown in Tab. 4. All the compounds have an excellent antimicrobial activity mainly on gram-positive bacteria. […] Test microorganisms with an asterisk mark (*) in Tab. 4 are all drug-resistant strains that were clinically isolated. More in detail, Staphylococcus aureus MS-8710 is resistant to tylosin, penicillin, tetracycline, erythromycin and leucomycin. Staphylococcus aureus MS-9931 is resistant to tylosin, penicillin, erythromycin, tetracycline, leucomycin, spiramycin and josamycin. And also Streptococcus piogenes is resistant to tylosin, erythromycin, oleandomycin and leucomycin.

Test [2] relates to Bacillus cereus ATCC 9634. As to conditions: broth dilution; for MIC: Bacillus cereus, ATCC9634, Bacillus cereus ATCC 9634, read-out: minimum inhibitory concentration (MIC). The protocol: as §1
On the technique in general: Dilution methods test growth across graded concentrations, often in twofold steps.

Test [3] deals with Staphylococcus aureus FDA-209P. As to conditions: Staphylococcus aureus FDA-209P, broth dilution; for MIC: Staphylococcus aureus, FDA209P, read-out: minimum inhibitory concentration (MIC). How it is done: as §1
In test [4] the test system is Staphylococcus aureus MS-9937. Particulars: Staphylococcus aureus MS-9937, drug-resistant clinical isolate; for MIC: MS9937, read-out: minimum inhibitory concentration (MIC). How it is done:
as §1

In test [5] the test system is Staphylococcus aureus SMITH. Particulars: Staphylococcus aureus SMITH, broth dilution; for MIC: Staphylococcus aureus, read-out: minimum inhibitory concentration (MIC). The protocol: as §1
Test [6] concerns Staphylococcus aureus MS-8710. Particulars: for MIC: Staphylococcus aureus, MS8710, Staphylococcus aureus MS-8710, drug-resistant clinical isolate, read-out: minimum inhibitory concentration (MIC). The protocol:
as §1

In test [7] the test system is Streptococcus pyogenes MH-771. As to conditions: for MIC: Streptococcus pyogenes, MH771, Streptococcus pyogenes MH-771, drug-resistant clinical isolate, read-out: minimum inhibitory concentration (MIC). How it is done: as §1
Test [8] concerns Staphylococcus aureus MS-9931. Particulars: Staphylococcus aureus MS-9931, drug-resistant clinical isolate; for MIC: MS9931, read-out: minimum inhibitory concentration (MIC). The protocol:
as §1

Values after ≈ are worked out from the molar mass of the structure shown.

As for `CCC1OC(=O)CC(OC(C)=O)C(C)C(OC2OC(C)C(OC3CC(C)(O)C(OC(=O)COc4ccccc4)C(C)O3)C(N(C)C)C2O)C(CC=O)CC(C)C(=O)C=CC(C)=CC1COC1OC(C)C(O)C(OC)C1OC` (stereo not shown) [Compound 45, 3-acetyl-4"-phenoxyacetyltylosin], the MIC in test [1] amounted to 0.19 µg/mL (≈ 0.174 µM); in test [2] it was 0.39 µg/mL (≈ 0.357 µM); in test [3] it was 0.39 µg/mL (≈ 0.357 µM); in test [4] it was 25 µg/mL (≈ 22.9 µM); in test [5], 0.39 µg/mL (≈ 0.357 µM); in test [6], 100 µg/mL (≈ 91.6 µM). Further, the MIC was found to be 12.5 µg/mL (≈ 11.4 µM) in test [7] and 25 µg/mL (≈ 22.9 µM) in test [8].
As to `CCCCCC(=O)OC1C(C)OC(OC2C(C)OC(OC3C(CC=O)CC(C)C(=O)C=CC(C)=CC(COC4OC(C)C(O)C(OC)C4OC)C(CC)OC(=O)CC(O)C3C)C(O)C2N(C)C)CC1(C)O` (stereo not shown) [Compound 7, 4"-n-caproyl(or n-hexanoyl)tylosin], the MIC in test [1] worked out at 0.39 µg/mL (≈ 0.385 µM); in test [2] it was 0.78 µg/mL (≈ 0.769 µM); in test [3], 0.78 µg/mL (≈ 0.769 µM); in test [4], 12.5 µg/mL (≈ 12.3 µM); in test [5] it was 0.78 µg/mL (≈ 0.769 µM); in test [6], 12.5 µg/mL (≈ 12.3 µM). Besides, the MIC in test [7] came to 6.25 µg/mL (≈ 6.16 µM); in test [8] it was 25 µg/mL (≈ 24.6 µM).
In the case of `CCC(=O)OC1C(OC2C(CC=O)CC(C)C(=O)C=CC(C)=CC(COC3OC(C)C(O)C(OC)C3OC)C(CC)OC(=O)CC(O)C2C)OC(C)C(OC2CC(C)(O)C(O)C(C)O2)C1N(C)C` (stereo not shown) [2'-propionyltylosin, reference compound], the MIC in test [1] is 0.39 µg/mL (≈ 0.401 µM); in test [2], 1.56 µg/mL (≈ 1.6 µM); in test [3], 1.56 µg/mL (≈ 1.6 µM); in test [4] it was 200 µg/mL (≈ 206 µM); in test [5], 1.56 µg/mL (≈ 1.6 µM); in test [6], more than 200 µg/mL. Besides, the MIC in test [7] was more than 200 µg/mL; in test [8], 200 µg/mL (≈ 206 µM).
With `CCC1OC(=O)CC(OC(C)=O)C(C)C(OC2OC(C)C(OC3CC(C)(O)C(O)C(C)O3)C(N(C)C)C2OC(C)=O)C(CC=O)CC(C)C(=O)C=CC(C)=CC1COC1OC(C)C(OC(=O)C(Cl)(Cl)Cl)C(OC)C1OC` (stereo not shown) [Compound 4, 3,2'-diacetyl-4'"-trichloroacetyltylosin], the MIC in test [1] stood at 0.39 µg/mL (≈ 0.34 µM); in test [2], 1.56 µg/mL (≈ 1.36 µM); in test [3], 1.56 µg/mL (≈ 1.36 µM); in test [4] it was 100 µg/mL (≈ 87.3 µM); in test [5], 1.56 µg/mL (≈ 1.36 µM); in test [6], 100 µg/mL (≈ 87.3 µM). Moreover, the MIC in test [7] and in test [8] was 100 µg/mL (≈ 87.3 µM) throughout.
In the case of `CCC(C(=O)OC1C(C)OC(OC2C(C)OC(OC3C(CC=O)CC(C)C(=O)C=CC(C)=CC(COC4OC(C)C(O)C(OC)C4OC)C(CC)OC(=O)CC(O)C3C)C(O)C2N(C)C)CC1(C)O)c1ccccc1` (stereo not drawn) [Compound 16, 4"-α-phenyl-n-butyryltylosin], the MIC in test [1] is 0.19 µg/mL (≈ 0.179 µM); in test [2] it was 0.78 µg/mL (≈ 0.734 µM); in test [3], 0.39 µg/mL (≈ 0.367 µM); in test [4], 12.5 µg/mL (≈ 11.8 µM); in test [5], 0.39 µg/mL (≈ 0.367 µM); in test [6], 12.5 µg/mL (≈ 11.8 µM). In addition, the MIC amounted to 6.25 µg/mL (≈ 5.88 µM) in test [7] and 25 µg/mL (≈ 23.5 µM) in test [8].
For the compound `CCC1OC(=O)CC(O)C(C)C(OC2OC(C)C(OC3CC(C)(O)C(O)C(C)O3)C(N(C)C)C2OC(C)=O)C(CC=O)CC(C)C(=O)C=CC(C)=CC1COC1OC(C)C(OC(=O)COc2ccccc2)C(OC)C1OC` (stereo not shown) [Compound 5, 2'-acetyl-4'"-phenoxyacetyltylosin], the MIC came to 0.39 µg/mL (≈ 0.357 µM) in test [1]; 0.78 µg/mL (≈ 0.714 µM) in test [2]; 0.78 µg/mL (≈ 0.714 µM) in test [3]; 100 µg/mL (≈ 91.6 µM) in test [4]; 0.78 µg/mL (≈ 0.714 µM) in test [5]; 100 µg/mL (≈ 91.6 µM) in test [6]. Moreover, the MIC in test [7] and in test [8] was 100 µg/mL (≈ 91.6 µM) each time.
With `CCC1OC(=O)CC(OC(C)=O)C(C)C(OC2OC(C)C(OC3CC(C)(O)C(OC(=O)C(C)c4ccccc4)C(C)O3)C(N(C)C)C2O)C(CC=O)CC(C)C(=O)C=CC(C)=CC1COC1OC(C)C(O)C(OC)C1OC` (stereo not drawn) [Compound 15, 3-acetyl-4"-α-phenylpropionyltylosin], the MIC was determined as 0.19 µg/mL (≈ 0.174 µM) in test [1]; 0.78 µg/mL (≈ 0.715 µM) in test [2]; 0.39 µg/mL (≈ 0.358 µM) in test [3]; 25 µg/mL (≈ 22.9 µM) in test [4]; 0.39 µg/mL (≈ 0.358 µM) in test [5]; 25 µg/mL (≈ 22.9 µM) in test [6]. Also, the MIC in test [7] was 12.5 µg/mL (≈ 11.5 µM); in test [8], 25 µg/mL (≈ 22.9 µM).
On to `CCC1OC(=O)CC(O)C(C)C(OC2OC(C)C(OC3CC(C)(O)C(OC(=O)CCC(C)C)C(C)O3)C(N(C)C)C2O)C(CC=O)CC(C)C(=O)C=CC(C)=CC1COC1OC(C)C(O)C(OC)C1OC` (stereo not shown) [Compound 11, 4"-iso-caproyl(or iso-hexanoyl)tylosin], for which the MIC in test [1] came to 0.39 µg/mL (≈ 0.385 µM); in test [2] it was 0.78 µg/mL (≈ 0.769 µM); in test [3], 0.78 µg/mL (≈ 0.769 µM); in test [4] it was 12.5 µg/mL (≈ 12.3 µM); in test [5], 0.78 µg/mL (≈ 0.769 µM); in test [6], 12.5 µg/mL (≈ 12.3 µM). Besides, the MIC in test [7] is 6.25 µg/mL (≈ 6.16 µM); in test [8], 12.5 µg/mL (≈ 12.3 µM).
Consider `CCC1OC(=O)CC(O)C(C)C(OC2OC(C)C(OC3CC(C)(O)C(OC(=O)COc4ccccc4)C(C)O3)C(N(C)C)C2O)C(CC=O)CC(C)C(=O)C=CC(C)=CC1COC1OC(C)C(O)C(OC)C1OC` (stereo not shown) [Compound 44, 4"-phenoxyacetyltylosin], for which the MIC in test [1] was determined as 0.19 µg/mL (≈ 0.181 µM); in test [2], 0.78 µg/mL (≈ 0.743 µM); in test [3], 0.39 µg/mL (≈ 0.371 µM); in test [4] it was 25 µg/mL (≈ 23.8 µM); in test [5], 0.39 µg/mL (≈ 0.371 µM); in test [6], 25 µg/mL (≈ 23.8 µM). In addition, the results for the MIC in test [7] and in test [8] were 6.25 µg/mL (≈ 5.95 µM) and 25 µg/mL (≈ 23.8 µM), respectively.
Consider `CCC1OC(=O)CC(O)C(C)C(OC2OC(C)C(OC3CC(C)(O)C(O)C(C)O3)C(N(C)C)C2OC(=O)CCl)C(CC=O)CC(C)C(=O)C=CC(C)=CC1COC1OC(C)C(O)C(OC)C1OC` (stereo not shown) [2'-monochloroacetyltylosin, reference compound], for which the MIC in test [1] is 0.39 µg/mL (≈ 0.393 µM); in test [2], 1.56 µg/mL (≈ 1.57 µM); in test [3], 1.56 µg/mL (≈ 1.57 µM); in test [4] it was 200 µg/mL (≈ 201 µM); in test [5], 1.56 µg/mL (≈ 1.57 µM); in test [6], more than 200 µg/mL. Besides, the MIC in test [7] is more than 200 µg/mL; in test [8] it was 200 µg/mL (≈ 201 µM).
As for `CCC1OC(=O)CC(OC(C)=O)C(C)C(OC2OC(C)C(OC3CC(C)(O)C(O)C(C)O3)C(N(C)C)C2OC(C)=O)C(CC=O)CC(C)C(=O)C=CC(C)=CC1COC1OC(C)C(O)C(OC)C1OC` (stereo not shown) [3,2'-diacetyltylosin, reference compound], the MIC in test [1] was 0.39 µg/mL (≈ 0.39 µM); in test [2], 1.56 µg/mL (≈ 1.56 µM); in test [3] it was 1.56 µg/mL (≈ 1.56 µM); in test [4], 200 µg/mL (≈ 200 µM); in test [5], 1.56 µg/mL (≈ 1.56 µM); in test [6] it was more than 200 µg/mL. Moreover, the MIC is more than 200 µg/mL in test [7] and 200 µg/mL (≈ 200 µM) in test [8].
Take `CCC1OC(=O)CC(OC(C)=O)C(C)C(OC2OC(C)C(OC3CC(C)(O)C(OC(=O)Cc4cccc5ccccc45)C(C)O3)C(N(C)C)C2O)C(CC=O)CC(C)C(=O)C=CC(C)=CC1COC1OC(C)C(O)C(OC)C1OC` (stereo not drawn) [Compound 23, 3-acetyl-4"-α-naphthylacetyltylosin]: the MIC came out at 0.39 µg/mL (≈ 0.346 µM) in test [1]; 0.78 µg/mL (≈ 0.693 µM) in test [2]; 0.78 µg/mL (≈ 0.693 µM) in test [3]; 50 µg/mL (≈ 44.4 µM) in test [4]; 0.78 µg/mL (≈ 0.693 µM) in test [5]; 25 µg/mL (≈ 22.2 µM) in test [6]. Besides, the MIC in test [7] and in test [8] was 25 µg/mL (≈ 22.2 µM) throughout.
With 4"-thienylacetyltylosin [Compound 30], the “minimum inhibitory concentration (MIC)” value is 0.19 µg/mL in test [1] (Sarcina lutea ATCC 9341); 0.39 µg/mL in test [2] (Bacillus cereus ATCC 9634); 0.39 µg/mL in test [3]; 25 µg/mL in test [4]; 0.39 µg/mL in test [5]; 12.5 µg/mL in test [6] (Staphylococcus aureus MS-8710, drug-resistant clinical isolate). For the same compound, the “minimum inhibitory concentration (MIC)” value was 6.25 µg/mL in test [7] (Streptococcus pyogenes MH-771, drug-resistant clinical isolate) and 25 µg/mL in test [8].
As for `CCCCCCCC(=O)OC1C(C)OC(OC2C(C)OC(OC3C(CC=O)CC(C)C(=O)C=CC(C)=CC(COC4OC(C)C(O)C(OC)C4OC)C(CC)OC(=O)CC(O)C3C)C(O)C2N(C)C)CC1(C)O` (stereo not shown) [Compound 9, 4"-n-caprylyl(or n-octanoyl)tylosin], the MIC amounted to 0.39 µg/mL (≈ 0.374 µM) in test [1]; 1.56 µg/mL (≈ 1.5 µM) in test [2]; 0.78 µg/mL (≈ 0.748 µM) in test [3]; 25 µg/mL (≈ 24 µM) in test [4]; 0.78 µg/mL (≈ 0.748 µM) in test [5]; 25 µg/mL (≈ 24 µM) in test [6]. Moreover, the MIC in test [7] and in test [8] was 25 µg/mL (≈ 24 µM) in each case.
